From patent US20240189449A1, “LIPID NANOPARTICLES AND POLYNUCLEOTIDES ENCODING ORNITHINE TRANSCARBAMYLASE FOR THE TREATMENT OF ORNITHINE TRANSCARBAMYLASE DEFICIENCY” (ModernaTX, Inc., priority 2021, published 2024)

Assays:
cynomolgus monkeys = assay: Luciferase level in livers ex vivo (ELISA), cynomolgus monkeys; conditions: IV
Method: To the assess potency of expression and metabolic stability of lipids of the disclosure in different species, the expression of an mRNA was measured following administration to non-human primates of a nanoparticle of the disclosure containing the mRNA.
(§1) Lipid nanoparticles including DSPC as a phospholipid, cholesterol as a structural lipid, Compound I as a PEG lipid, an ionizable amino lipid of Formula (II), and an mRNA encoding luciferase were intravenously administered to cynomolgus monkeys. The level of luciferase in livers ex vivo was measured via ELISA at 6 hours after injection.

Sprague Dawley rats [1] = assay: Parent lipid remaining in liver tissue at 24 h, rats; format: in vivo; conditions: rat
Sprague Dawley rats [2] = assay: Tolerability in rats: reporter antibody construct expression (ELISA) and liver toxicity; format: in vivo; conditions: IV
Method: To assess tolerability of the lipids of the disclosure, expression of a reporter antibody construct induced by sample formulations was assessed in rats.
Lipid nanoparticles including DSPC as a phospholipid, cholesterol as a structural lipid, Compound I as a PEG lipid, an ionizable amino lipid of Formula (II), and an mRNA encoding a reporter antibody construct were intravenously administered to Sprague Dawley rats. […] For the formulations tested, high levels of the reporter antibody were measured with minimal signs of liver toxicity (Table 15).

Sprague Dawley rats [3] = assay: NPI-Luciferase expression, ex vivo liver bioluminescence, Sprague Dawley rats; format: in vivo; conditions: rat, IV
Method: (§2) To further assess potency of expression and metabolic stability of lipids of the disclosure, expression of luciferase was measured following administration to rodents of a nanoparticle of the disclosure comprising an mRNA containing luciferase.
(§3) Lipid nanoparticles including DSPC as a phospholipid, cholesterol as a structural lipid, Compound I as a PEG lipid, an ionizable amino lipid of Formula (II), and an mRNA encoding luciferase were intravenously administered to CD-1 mice and Sprague Dawley rats. The level of expression was tested via bioluminescence in the liver ex vivo at 6 hours after injection.

CD-1 mice [4] = assay: NPI-Luciferase expression, ex vivo liver bioluminescence, CD-1 mice; format: in vivo; conditions: mouse, IV
Method: as §2, §3

CD-1 mice [5] = assay: Parent lipid remaining in liver at 24 h, CD-1 mice (hEPO mRNA LNPs); format: in vivo; conditions: for Approx. Percent Total Dose of Parent Lipid Remaining at 24 h: calculation assumes a 25 g mouse with a 1.5 g liver
CD-1 mice [6] = assay: hEPO expression in serum after IV lipid nanoparticles with hEPO mRNA, CD-1 mice; format: in vivo; conditions: LNP with DSPC, cholesterol, Compound I; for Mean 6 hr hEPO Concentration: serum 6 hours after injection
Method: To assess potency of expression and metabolic stability of lipids of the disclosure, hepatocyte protein expression (hEPO) was measured following administration to mice of a nanoparticle of the disclosure.
as §1, with “hEPO” for “luciferase”, “CD-1 mice.” for “cynomolgus monkeys.”, “concentration” for “level”, “serum” for “livers ex vivo”, “tested” for “measured via ELISA”

Sprague Dawley rats [7] = assay: hEPO expression in serum after IV lipid nanoparticles with hEPO mRNA, Sprague Dawley rats; format: in vivo; conditions: serum 6 hours after injection
Method: To further assess potency of expression and metabolic stability of lipids of the disclosure, hepatocyte protein expression (hEPO) was measured following administration to rats of a nanoparticle of the disclosure.
Lipid nanoparticles including DSPC as a phospholipid, cholesterol as a structural lipid, Compound I as a PEG lipid, an ionizable amino lipid of Formula (II), and an mRNA encoding hEPO were intravenously administered to Sprague Dawley rats. The concentration of hEPO in serum was tested at 6 hours after injection.

SMILES | Mean 6 h NPI-Luciferase Concentration (cynomolgus monkeys) [ng/g] | Approx. Percent Total Dose of Parent Lipid Remaining at 24 h (Sprague Dawley rats [1]) | Mean Reporter Antibody Construct Concentration (Sprague Dawley rats [2]) [ng/mL] | Mean 6 h ex vivo Liver NPI-Luciferase Total Flux (Sprague Dawley rats [3]) [photons/second] | Mean 6 h ex vivo Liver NPI-Luciferase Total Flux (CD-1 mice [4]) [photons/second] | Parent Lipid Remaining (nmol/g liver tissue) at 24 h (CD-1 mice [5]) [nmol/g liver tissue] | Approx. Percent Total Dose of Parent Lipid Remaining at 24 h (CD-1 mice [5]) [%] | hEPO AUC (CD-1 mice [6]) | Mean 6 hr hEPO Concentration (CD-1 mice [6]) [mIU/mL] | Mean 6 hr hEPO Concentration (Sprague Dawley rats [7]) [mIU/mL]
CCCCCCCCC(CCCCCCCC)OC(=O)CCCCCCCN(CCO)CCCCCCCC(=O)OCCC(CCCC)CCCC [Compound 22, 3-Butylheptyl 8-((8-(heptadecan-9-yloxy)-8-oxooctyl)(2-hydroxyethyl)amino)octanoate] | 1322 | <0.1%^ | 1113642 | 2227666667 | 300960000 | <0.1 | <0.1 | 2.03E+07 | 1264530 | 
CCCCCC(CCCCC)CCOC(=O)CCCCCCCN(CCO)CCCCCCCC(=O)OCCC(CCCCC)CCCCC [Compound 25] |  | <0.1%^ | 948617 | 4068000000 | 336800000 | 0.1 ± 0.04 | <0.1 | 1.07E+07 | 591942 | 
CCCCCCCCC(CCCCCCCC)OC(=O)CCCCCCCN(CCCCCCCC(=O)OCCC(CCCC)CCCC)CCCNc1c(NC)c(=O)c1=O [Compound 27, 3-Butylheptyl 8-((8-(heptadecan-9-yloxy)-8-oxooctyl)(3-((2-(methylamino)-3,4-dioxocyclobut-1-en-1-yl)amino)propyl)amino)octanoate] | 878 | 28% | 833698 | 1215666667 | 357720000 | 27 ± 4 | 28 | 2.10E+07 | 1316011 | 664431
CCCCCC(CCCCC)CCOC(=O)CCCCCCCN(CCCCCCCC(=O)OCCC(CCCCC)CCCCC)CCCNc1c(NC)c(=O)c1=O [Compound 30, Bis(3-pentyloctyl) 8,8′-((3-((2-(methylamino)-3,4-dioxocyclobut-1-en-1-yl)amino)propyl)azanediyl)dioctanoate] | 782 | 25% |  | 963633333.3 | 299800000 | 25 ± 4 | 26 | 2.40E+07 | 1592050 | 688780
CCCCCC(CCCCC)CCOC(=O)CCCCCCCN(CCCCCCCC(=O)OCCC(CCCC)CCCC)CCCNc1c(NC)c(=O)c1=O [Compound 54, 3-Butylheptyl 8-((3-((2-(methylamino)-3,4-dioxocyclobut-1-en-1-yl)amino)propyl)(8-oxo-8-((3-pentyloctyl)oxy)octyl)amino)octanoate] | 693 |  |  |  |  | 12 ± 1 | 12 | 1.97E+07 | 647775 | 476742
CCCCCCC(CCCCCC)OC(=O)CCCCCCCN(CCCCCCCC(=O)OCCC(CCC)CCC)CCCNc1c(NC)c(=O)c1=O [Compound 64] |  |  |  |  |  | 4.9 ± 0.9 | 6 ± 0.8 | 2.43E+07 | 1760015 | 161146
